Here are results for 26 molecules from US20080306056A1, “PYRAZOLE-DERIVATIVES AS FACTOR Xa INHIBITORS” (SANOFI-AVENTIS DEUTSCHLAND GMBH, priority 2002, published 2008).

T1 sequence (P00742 235-488 limits assumed): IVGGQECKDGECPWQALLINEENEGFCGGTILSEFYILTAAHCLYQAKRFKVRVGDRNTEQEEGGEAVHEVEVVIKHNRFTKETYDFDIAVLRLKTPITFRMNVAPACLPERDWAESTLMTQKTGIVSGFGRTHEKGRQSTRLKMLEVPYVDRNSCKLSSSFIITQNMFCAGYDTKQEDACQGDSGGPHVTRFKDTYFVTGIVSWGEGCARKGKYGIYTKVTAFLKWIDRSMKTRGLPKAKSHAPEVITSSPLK
T1 sequence (P00742 41-179 partner limits assumed): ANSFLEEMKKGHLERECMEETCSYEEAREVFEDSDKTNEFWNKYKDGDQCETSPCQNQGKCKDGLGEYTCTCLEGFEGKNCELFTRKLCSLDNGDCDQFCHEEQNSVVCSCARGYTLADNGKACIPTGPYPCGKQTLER

This assay concerns the target T1, human factor Xa (Homo sapiens, UniProt P00742).
T1 construct: 25 μl human factor Xa (Enzyme Research Laboratories, Inc; South Bend, Ind.); purchased Enzyme Research Laboratories, Inc; South Bend, Ind
Nature of the assay: Factor Xa assay (chromogenic, purified enzyme). The following applies: inhibition constant for factor Xa; chromogenic substrate S-2765 140 μM, enzyme 0.5 nM, 25° C., pH 7.8; Ki=IC50/{1+(substrate concentration/Km)}; read-out: Ki(FXa). It counts as biochemical. The procedure, abridged:
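Human factor Xa (0.5 nM) pre-incubated 10 min with compound in TBS-PEG/DMSO, then S-2765 (140 μM) added; initial hydrolysis rate read at 405 nm, 25°C. IC50 by linear regression of relative rate vs log concentration; Ki = IC50/(1+[S]/Km).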
A word on the Ki: it is a measure of affinity in units of concentration, obtained from inhibition or displacement. On to `CC(C)N1CCC(NC(=O)c2cc(C(=O)N3CCSCC3)nn2Cc2cc(-c3ccc(Cl)s3)on2)CC1` [Example 34, 2-[5-(5-Chloro-thiophen-2-yl)-isoxazol-3-ylmethyl]-5-(thiomorpholine-4-carbonyl)-2H-pyrazole-3-carboxylic acid (1-isopropyl-piperidin-4-yl)-amide], for which the Ki amounted to 108 nM.
For `CC(C)N1CCC(NC(=O)c2cc(C(=O)NCC(N)=O)nn2Cc2cc(-c3ccc(Cl)s3)on2)CC1` [Example 60, 1-[5-(5-Chloro-thiophen-2-yl)-isoxazol-3-ylmethyl]-1H-pyrazole-3,5-dicarboxylic acid 3-carbamoylmethyl-amide 5-[(1-isopropyl-piperidin-4-yl)-amide]], the Ki was found to be 56 nM.
Then `CC(C)N1CCC(NC(=O)c2cc(C(=O)NCCO)nn2Cc2cc(-c3ccc(Cl)s3)on2)CC1` [Example 27, 1-[5-(5-Chloro-thiophen-2-yl)-isoxazol-3-ylmethyl]-1H-pyrazole-3,5-dicarboxylic acid 3-[(2-hydroxy-ethyl)-amide] 5-[(1-isopropyl-piperidin-4-yl)-amide]], with 88 nM.
With `CC(C)N1CCC(NC(=O)c2c(C#N)cnn2Cc2cc(-c3ccc(Cl)s3)on2)CC1` [Example 55, 2-[5-(5-Chloro-thiophen-2-yl)-isoxazol-3-ylmethyl]-4-cyano-2H-pyrazole-3-carboxylic acid (1-isopropyl-piperidin-4-yl)-amide] the figure was 99 nM.
For the molecule `CC(C)N1CCC(NC(=O)c2c(C#N)c(-c3cccs3)nn2Cc2cc(-c3ccc(Cl)s3)on2)CC1` [Example 12, 2-[5-(5-Chloro-thiophen-2-yl)-isoxazol-3-ylmethyl]-4-cyano-5-thiophen-2-yl-2H-pyrazole-3-carboxylic acid (1-isopropyl-piperidin-4-yl)-amide], the inhibition constant Ki was 14 nM.
On to `CC(C)N1CCC(NC(=O)c2cc(C(=O)O)nn2Cc2cc(-c3ccc(Cl)s3)on2)CC1` [Example 21, 1-[5-(5-Chloro-thiophen-2-yl)-isoxazol-3-ylmethyl]-5-(1-isopropyl-piperidin-4-ylcarbamoyl)-1H-pyrazole-3-carboxylic acid], for which the Ki was found to be 214 nM.
In the case of `CCOC(=O)c1cc(C(=O)NC2CCN(C(C)C)CC2)n(Cc2cc(-c3ccc(Cl)s3)on2)n1` [Example 23, 1-[5-(5-Chloro-thiophen-2-yl)-isoxazol-3-ylmethyl]-5-(1-isopropyl-piperidin-4-ylcarbamoyl)-1H-pyrazole-3-carboxylic acid ethyl ester], the inhibition constant (Ki) is 144 nM.
Then `CC(C)N1CCC(NC(=O)c2c(C#N)c(-c3cccs3)nn2Cc2ccc(Cl)cc2)CC1` [Example 19, 2-(4-Chloro-benzyl)-4-cyano-5-thiophen-2-yl-2H-pyrazole-3-carboxylic acid (1-isopropyl-piperidin-4-yl)-amide], with 274 nM; and `CC(C)N1CCC(NC(=O)c2cc(C(=O)N3CCC(CO)CC3)nn2Cc2cc(-c3ccc(Cl)s3)on2)CC1` [Example 37, 2-[5-(5-Chloro-thiophen-2-yl)-isoxazol-3-ylmethyl]-5-(4-hydroxymethyl-piperidine-1-carbonyl)-2H-pyrazole-3-carboxylic acid (1-isopropyl-piperidin-4-yl)-amide], with 195 nM; and `CC(C)N1CCC(NC(=O)c2cc(C(=O)N3CCOCC3)nn2Cc2cc(-c3ccc(Cl)s3)on2)CC1` [Example 25, 2-[5-(5-Chloro-thiophen-2-yl)-isoxazol-3-ylmethyl]-5-(morpholine-4-carbonyl)-2H-pyrazole-3-carboxylic acid (1-isopropyl-piperidin-4-yl)-amide], with 95 nM.
Then `O=C(NCC1CCN(c2ccncc2)CC1)c1cc(-c2cccs2)nn1Cc1cc(-c2ccc(Cl)s2)on1` [Example 16, 2-[5-(5-Chloro-thiophen-2-yl)-isoxazol-3-ylmethyl]-5-thiophen-2-yl-2H-pyrazole-3-carboxylic acid (3,4,5,6-tetrahydro-2H-[1,4′]bipyridinyl-4-ylmethyl)-amide], with 165 nM.
Consider `CNC(=O)c1cc(C(=O)NC2CCN(C(C)C)CC2)n(Cc2cc(-c3ccc(Cl)s3)on2)n1` [Example 26, 1-[5-(5-Chloro-thiophen-2-yl)-isoxazol-3-ylmethyl]-1H-pyrazole-3,5-dicarboxylic acid 5-[(1-isopropyl-piperidin-4-yl)-amide] 3-methylamide], for which the Ki came to 68 nM.
For the molecule `CC(C)N1CCC(NC(=O)c2cc(-c3cccs3)nn2Cc2csc(-c3ccc(Cl)s3)n2)CC1` [Example 14, 2-[2-(5-Chloro-thiophen-2-yl)-thiazol-4-ylmethyl]-5-thiophen-2-yl-2H-pyrazole-3-carboxylic acid (1-isopropyl-piperidin-4-yl)-amide], the inhibitory constant (Ki) amounted to 46 nM.
As to `CC(C)N1CCC(NC(=O)c2cc(C(=O)N3CC(O)C3)nn2CC(=O)Nc2ccc(Cl)cn2)CC1` [Example 95, 2-[(5-Chloro-pyridin-2-ylcarbamoyl)-methyl]-5-(3-hydroxy-azetidine-1-carbonyl)-2H-pyrazole-3-carboxylic acid (1-isopropyl-piperidin-4-yl)-amide], the inhibition constant Ki is 39 nM.
With `CC(C)N1CCC(NC(=O)c2cc(C(=O)NCCCN3CCCC3=O)nn2Cc2cc(-c3ccc(Cl)s3)on2)CC1` [Example 76, 1-[5-(5-Chloro-thiophen-2-yl)-isoxazol-3-ylmethyl]-1H-pyrazole-3,5-dicarboxylic acid 5-[(1-isopropyl-piperidin-4-yl)-amide] 3-{[3-(2-oxo-pyrrolidin-1-yl)-propyl]-amide}] the figure was 83 nM; with `CC(C)N1CCC(NC(=O)c2cc(C(=O)N3CCC4(CCCC4)CC3)nn2Cc2cc(-c3ccc(Cl)s3)on2)CC1` [Example 38, 5-(8-Aza-spiro[4.5]decane-8-carbonyl)-2-[5-(5-chloro-thiophen-2-yl)-isoxazol-3-ylmethyl]-2H-pyrazole-3-carboxylic acid (1-isopropyl-piperidin-4-yl)-amide], 932 nM.
Then `CC(C)N1CCC(NC(=O)c2cc(C(=O)N(C)C3CCS(=O)(=O)C3)nn2Cc2cc(-c3ccc(Cl)s3)on2)CC1` (centres unmarked) [Example 40, 1-[5-(5-Chloro-thiophen-2-yl)-isoxazol-3-ylmethyl]-1H-pyrazole-3,5-dicarboxylic acid 3-[(1,1-dioxo-tetrahydro-1-thiophen-3-yl)-methyl-amide] 5-[(1-isopropyl-piperidin-4-yl)-amide]], with 123 nM; and `CC(C)N1CCC(NC(=O)c2c(C#N)cnn2CC(=O)Nc2ccc(Cl)cc2)CC1` [Example 57, 2-[(4-Chloro-phenylcarbamoyl)-methyl]-4-cyano-2H-pyrazole-3-carboxylic acid (1-isopropyl-piperidin-4-yl)-amide], with 410 nM; and `CCOC(=O)C1CCN(C(=O)c2cc(C(=O)NC3CCN(C(C)C)CC3)n(Cc3cc(-c4ccc(Cl)s4)on3)n2)CC1` [Example 69, 1-[1-[5-(5-Chloro-thiophen-2-yl)-isoxazol-3-ylmethyl]-5-(1-isopropyl-piperidin-4-ylcarbamoyl)-1H-pyrazole-3-carbonyl]-piperidine-4-carboxylic acid ethyl ester], with 177 nM.
Then `CC(C)N1CCC(NC(=O)c2cc(C(=O)N3CCC(F)(F)CC3)nn2Cc2cc(-c3ccc(Cl)s3)on2)CC1` [Example 71, 2-[5-(5-Chloro-thiophen-2-yl)-isoxazol-3-ylmethyl]-5-(4,4-difluoro-piperidine-1-carbonyl)-2H-pyrazole-3-carboxylic acid (1-isopropyl-piperidin-4-yl)-amide], with 184 nM.
Consider `CC(C)N1CCC(NC(=O)c2cc(C(=O)NC3CCC3)nn2Cc2cc(-c3ccc(Cl)s3)on2)CC1` [Example 46, 1-[5-(5-Chloro-thiophen-2-yl)-isoxazol-3-ylmethyl]-1H-pyrazole-3,5-dicarboxylic acid 3-cyclobutylamide 5-[(1-isopropyl-piperidin-4-yl)-amide]], for which the Ki is 106 nM.
With `CC(C)N1CCC(NC(=O)c2cc(C(=O)OCCO)nn2Cc2cc(-c3ccc(Cl)s3)on2)CC1` [Example 110, 1-[5-(5-Chloro-thiophen-2-yl)-isoxazol-3-ylmethyl]-5-(1-isopropyl-piperidin-4-ylcarbamoyl)-1H-pyrazole-3-carboxylic acid 2-hydroxy-ethyl ester] the figure was 81 nM.
Then `CCOC(=O)CNC(=O)c1cc(C(=O)NC2CCN(C(C)C)CC2)n(CC(=O)Nc2ccc(Cl)cn2)n1` [Example 93, {[1-[(5-Chloro-pyridin-2-ylcarbamoyl)-methyl]-5-(1-isopropyl-piperidin-4-ylcarbamoyl)-1H-pyrazole-3-carbonyl]-amino}-acetic acid ethyl ester], with 36 nM; and `CC(C)N1CCC(NC(=O)c2nn(Cc3cc(-c4ccc(Cl)s4)on3)c(-c3cccs3)c2C#N)CC1` [Example 13, 1-[5-(5-Chloro-thiophen-2-yl)-isoxazol-3-ylmethyl]-4-cyano-5-thiophen-2-yl-1H-pyrazole-3-carboxylic acid (1-isopropyl-piperidin-4-yl)-amide], with 39 nM.
For the molecule `CC(C)N1CCC(NC(=O)c2cc(C(=O)N3CCCOCC3)nn2CC(=O)Nc2ccc(Cl)cn2)CC1` [Example 108, 2-[(5-Chloro-pyridin-2-ylcarbamoyl)-methyl]-5-([1,4]oxazepane-4-carbonyl)-2H-pyrazole-3-carboxylic acid (1-isopropyl-piperidin-4-yl)-amide], the inhibitory constant (Ki) was 39 nM.
With `CC(C)N1CCC(NC(=O)c2cc(C(=O)NC(CO)(CO)CO)nn2Cc2cc(-c3ccc(Cl)s3)on2)CC1` [Example 89, 1-[5-(5-Chloro-thiophen-2-yl)-isoxazol-3-ylmethyl]-1H-pyrazole-3,5-dicarboxylic acid 3-[(2-hydroxy-1,1-bis-hydroxymethyl-ethyl)-amide] 5-[(1-isopropyl-piperidin-4-yl)-amide]] the figure was 192 nM.
